Patent publication US11040981B2, “Pyrrolotriazine compounds and methods of inhibiting TAM kinases” (Syros Pharmaceuticals, Inc., priority 2017, dated 2021)

Experiments:
[1] = biological target: T1, AXL (Homo sapiens, UniProt P30530); assay: TR-FRET kinase activity assay, AXL; assay type: biochemical; settings: ATP at Km, 60 minutes
T1 sequence (P30530 26-894): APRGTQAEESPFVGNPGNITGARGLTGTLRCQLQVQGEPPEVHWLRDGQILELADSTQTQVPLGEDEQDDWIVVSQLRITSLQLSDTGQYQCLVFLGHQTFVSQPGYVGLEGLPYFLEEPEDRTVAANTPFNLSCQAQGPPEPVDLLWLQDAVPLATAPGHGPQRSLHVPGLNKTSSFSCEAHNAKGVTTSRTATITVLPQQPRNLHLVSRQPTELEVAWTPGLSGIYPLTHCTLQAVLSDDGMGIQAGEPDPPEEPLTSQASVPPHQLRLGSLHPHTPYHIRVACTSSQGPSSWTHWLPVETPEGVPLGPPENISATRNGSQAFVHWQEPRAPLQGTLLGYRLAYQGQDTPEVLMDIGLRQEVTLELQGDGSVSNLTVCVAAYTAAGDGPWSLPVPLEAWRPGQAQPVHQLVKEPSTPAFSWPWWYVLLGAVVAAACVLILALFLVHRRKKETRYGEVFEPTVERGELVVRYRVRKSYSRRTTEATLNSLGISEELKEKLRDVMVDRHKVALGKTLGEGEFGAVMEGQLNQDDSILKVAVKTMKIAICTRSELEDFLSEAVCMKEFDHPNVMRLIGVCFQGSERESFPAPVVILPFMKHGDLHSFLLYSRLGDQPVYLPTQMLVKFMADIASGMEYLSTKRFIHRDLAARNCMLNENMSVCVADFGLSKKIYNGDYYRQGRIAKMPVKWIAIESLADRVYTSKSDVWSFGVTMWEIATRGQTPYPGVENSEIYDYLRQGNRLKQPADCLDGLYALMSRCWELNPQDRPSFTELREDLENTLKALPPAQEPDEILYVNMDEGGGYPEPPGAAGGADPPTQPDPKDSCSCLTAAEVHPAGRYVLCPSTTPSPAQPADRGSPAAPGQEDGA
How it was run: (§1)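 Each kinase phosphorylated a fluorescent-labelled tyrosine peptide in 50 mM HEPES pH 7.5, 10 mM MgCl2, 1 mM EGTA, 0.01% Brij 35, 1 mM DTT at RT, with ATP at Km for that enzyme. After 60 min, EDTA quench and Eu-anti-phosphotyrosine antibody (30 min, dark); IC50 from TR-FRET decrease.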

[2] = biological target: T2, FLT3 (Homo sapiens, UniProt P36888); assay: TR-FRET kinase activity assay, FLT3; assay type: biochemical; settings: ATP at Km, 60 minutes
T2 sequence (P36888 27-993): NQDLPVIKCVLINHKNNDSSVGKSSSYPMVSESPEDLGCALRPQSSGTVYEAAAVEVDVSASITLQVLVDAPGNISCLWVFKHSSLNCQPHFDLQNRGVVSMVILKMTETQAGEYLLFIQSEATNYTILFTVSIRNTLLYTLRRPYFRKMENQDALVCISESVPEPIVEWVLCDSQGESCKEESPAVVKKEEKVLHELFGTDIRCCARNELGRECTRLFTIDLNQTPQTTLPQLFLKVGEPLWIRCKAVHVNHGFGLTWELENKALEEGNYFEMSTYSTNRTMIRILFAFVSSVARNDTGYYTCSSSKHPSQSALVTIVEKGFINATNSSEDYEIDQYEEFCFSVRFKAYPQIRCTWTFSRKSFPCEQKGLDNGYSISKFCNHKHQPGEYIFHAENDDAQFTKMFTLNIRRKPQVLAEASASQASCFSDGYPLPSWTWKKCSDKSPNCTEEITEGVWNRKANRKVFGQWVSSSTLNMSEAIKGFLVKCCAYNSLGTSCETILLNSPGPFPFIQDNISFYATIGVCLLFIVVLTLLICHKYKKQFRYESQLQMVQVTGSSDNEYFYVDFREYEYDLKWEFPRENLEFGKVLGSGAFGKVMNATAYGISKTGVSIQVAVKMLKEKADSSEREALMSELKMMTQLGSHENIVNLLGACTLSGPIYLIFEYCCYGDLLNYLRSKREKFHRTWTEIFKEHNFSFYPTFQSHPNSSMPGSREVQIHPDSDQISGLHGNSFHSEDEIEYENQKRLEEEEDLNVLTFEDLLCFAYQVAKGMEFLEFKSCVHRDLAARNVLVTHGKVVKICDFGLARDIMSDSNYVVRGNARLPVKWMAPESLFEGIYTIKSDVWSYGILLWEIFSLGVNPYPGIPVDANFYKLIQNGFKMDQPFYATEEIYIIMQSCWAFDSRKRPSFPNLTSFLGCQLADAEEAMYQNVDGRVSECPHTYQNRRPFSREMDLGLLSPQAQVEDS
How it was run: as §1

Row | Compound | IC50 [1] [nM] | IC50 [2] [nM]
1 | COC[C@H](C)Nc1ncc2c(-c3ccc(CN4CCOCC4)cc3)cc([C@H]3CC[C@@H](O)CC3)n2n1 [Compound 163, (cis)-4-(2-(((S)-1-methoxypropan-2-yl)amino)-5-(4-(morpholinomethyl)phenyl)pyrrolo[2,1-f][1,2,4]triazin-7-yl)cyclohexanol] | ≤ 100 | 100 to 1000
2 | CC(Nc1ncc2c(-c3ccc(CN4CCN(C)CC4)cc3)cc([C@H]3CC[C@H](O)CC3)n2n1)C(F)F (mixture of isomers) [Compound 148] | ≤ 100 | 100 to 1000
3 | COC[C@H](C)Nc1ncc2c(-c3cnn(C(C)(C)c4nnc([C@H]5CCCO5)o4)c3)cc([C@H]3CC[C@H](O)CC3)n2n1 [Compound 602] | ≤ 100 | 1000 to 10000
4 | COC[C@H](C)Nc1ncc2c([C@H]3CC[C@H](C(=O)N4CCN(C)CC4)CC3)cc([C@H]3CC[C@H](O)CC3)n2n1 [Compound 606] | ≤ 100 | 1000 to 10000
5 | COC[C@H](C)Nc1ncc2c(N3CCCC3=O)cc([C@H]3CC[C@H](O)CC3)n2n1 [Compound 177] | 1000 to 10000 | 1000 to 10000
6 | COC[C@H](C)Nc1ncc2c(-c3cnn(C)c3)cc([C@H]3CC[C@H](O)CC3)n2n1 [Compound 152] | ≤ 100 | 100 to 1000
7 | COC[C@H](C)Nc1ncc2c(-c3cnn(C4COC4)c3)cc([C@H]3CCc4[nH]ncc4C3)n2n1 [Compound 624] | ≤ 100 | ≤ 100
8 | COC[C@H](C)Nc1ncc2c(-c3cnn(CCN4CCOCC4)c3)cc([C@H]3CC[C@H](O)CC3)n2n1 [Compound 153] | 100 to 1000 | 1000 to 10000
9 | COC[C@H](C)Nc1ncc2c(-c3cnn(C(C)(C)c4ncc(C)o4)c3)cc(C3CCC(O)CC3)n2n1 (some centres unmarked) [Compound 628] | ≤ 100 | 1000 to 10000
10 | COC[C@H](C)Nc1ncc2c(-c3cnn(C(C)(C)c4nnc(N5CCOCC5)o4)c3)cc(C3CCC(O)CC3)n2n1 (some centres unmarked) [Compound 631] | ≤ 100 | 1000 to 10000
11 | [2H]C([2H])([2H])OCC(C)Nc1ncc2c(-c3ccnc(N4CCOCC4)c3)cc(C3CCC(O)CC3)n2n1 (centres unmarked) [Compound 629] | ≤ 100 | 100 to 1000
12 | COC[C@H](C)Nc1ncc2c(-c3cnn(C(C)(C)c4nnc([C@@H]5CCCO5)o4)c3)cc([C@H]3CC[C@H](O)CC3)n2n1 [Compound 601] | ≤ 100 | 1000 to 10000
13 | COC[C@H](C)Nc1ncc2c(-c3ccc(CN4CCN(C(C)=O)CC4)cc3)cc([C@H]3CC[C@H](O)CC3)n2n1 [Compound 150] | ≤ 100 | 100 to 1000
14 | COC[C@H](C)Nc1ncc2c(-c3cnn(C(C)(C)c4nnc(C(F)F)o4)c3)cc([C@H]3CC[C@H](O)CC3)n2n1 [Compound 599] | ≤ 100 | 1000 to 10000
15 | COC[C@H](C)Nc1ncc2c(-c3ccnc(C)c3)cc([C@H]3CC[C@@H](O)CC3)n2n1 [Compound 183] | 100 to 1000 | 1000 to 10000
16 | CNC(=O)c1ccc(-c2cc([C@H]3CC[C@H](O)CC3)n3nc(N[C@@H](C)COC)ncc23)cn1 [Compound 147] | 100 to 1000 | 1000 to 10000
17 | COC[C@H](C)Nc1ncc2c(-c3cnn(C(C)(C)c4nnc(C(C)C)o4)c3)cc([C@H]3CC[C@H](O)CC3)n2n1 [Compound 600] | ≤ 100 | 1000 to 10000
18 | COC[C@H](C)Nc1ncc2c(-c3ccnc(C)c3)cc([C@H]3CC[C@H](O)CC3)n2n1 [Compound 146] | 100 to 1000 | 1000 to 10000
19 | COCC(C)Nc1ncc2c(-c3ccc(C(C)(C)c4nnc(C)o4)s3)cc(C3CCC(O)CC3)n2n1 (centres unmarked) [Compound 611] | ≤ 100 | 100 to 1000

Row | Compound | IC50 [1] [nM] | IC50 [2] [nM]
20 | CCC1(O)CCC(c2cc(-c3cnn(C4COC4)c3)c3cnc(NC(C)COC)nn23)CC1 (centres unmarked) [Compound 615] | ≤ 100 | 100 to 1000
21 | COC[C@H](C)Nc1ncc2c(-c3ccc([C@H](C)N4CCCC4)cc3)cc([C@H]3CC[C@H](O)CC3)n2n1 [Compound 165] | ≤ 100 | ≤ 100
22 | COCC(C)Nc1ncc2c(-c3ccc(C(C)N4CCCC4)cc3)cc(C3CCC(O)CC3)n2n1 (centres unmarked) [Compound 166] | ≤ 100 | ≤ 100
23 | COC[C@H](C)Nc1ncc2c(-c3ccc(C(=O)N4CCN(C)CC4)cc3)cc([C@H]3CC[C@H](O)CC3)n2n1 [Compound 144] | ≤ 100 | 100 to 1000
24 | COC[C@H](C)Nc1ncc2c(-c3cnn(C4CCOCC4)c3)cc([C@H]3CC[C@H](O)CC3)n2n1 [Compound 151] | 100 to 1000 | 100 to 1000
25 | COC[C@H](C)N(C)c1ncc2c(-c3ccnc(C)c3)cc([C@H]3CC[C@H](OC)CC3)n2n1 [Compound 176, 7-((trans)-4-methoxycyclohexyl)-N-((S)-1-methoxypropan-2-yl)-N-methyl-5-(2-methylpyridin-4-yl)pyrrolo[2,1-f][1,2,4]triazin-2-amine] | 1000 to 10000 | 1000 to 10000
26 | COC[C@H](C)Nc1ncc2c(-c3ccnc(N4CC(C)(O)C4)c3)cc(C3CCC(O)CC3)n2n1 (some centres unmarked) [Compound 632] | ≤ 100 | 100 to 1000
27 | COC[C@H](C)Nc1ncc2c(-c3ccc(C4(N5CCOCC5)CC4)cc3)cc([C@H]3CC[C@H](O)CC3)n2n1 [Compound 184] | 100 to 1000 | 100 to 1000
28 | COC[C@H](C)Nc1ncc2c(-c3cnn(C(C)(C)C(=O)N4CCC(C)(O)C4)c3)cc([C@H]3CC[C@H](O)CC3)n2n1 (some centres unmarked) [Compound 620] | ≤ 100 | 1000 to 10000
29 | C[C@@H](COC(F)F)Nc1ncc2c(-c3ccnc(N4CCOC(C(C)(C)O)C4)c3)cc([C@H]3CC[C@H](O)CC3)n2n1 (some centres unmarked) [Compound 598] | ≤ 100 | 100 to 1000
30 | CC(CC#N)Nc1ncc2c(-c3ccc(CN4CCN(C)CC4)cc3)cc(C3CCC(O)CC3)n2n1 (centres unmarked) [Compound 145] | ≤ 100 | ≤ 100
31 | COC[C@H](C)Nc1ncc2c(-c3cnn(C4COC4)c3)cc([C@H]3CC[C@H](O)C(F)(F)C3)n2n1 [Compound 614] | ≤ 100 | 100 to 1000
32 | COCCC(C)Nc1ncc2c(-c3ccc(CN4CCCC4)cc3)cc(C3CCC(O)CC3)n2n1 (centres unmarked) [Compound 161] | 100 to 1000 | ≤ 100
33 | C[C@@H](CC(F)(F)F)Nc1ncc2c(-c3cnn(C(C)(C)C(=O)N4CC5(COC5)C4)c3)cc([C@H]3CC[C@H](O)CC3)n2n1 [Compound 608] | ≤ 100 | ≤ 100
34 | COC[C@H](C)Nc1ncc2c(-c3ccnc(S(C)(=O)=O)c3)cc(C3CCC(O)CC3)n2n1 (some centres unmarked) [Compound 627] | ≤ 100 | 1000 to 10000
35 | COCC(C)Nc1ncc2c(-c3ccc(C(C)N4CCOCC4)cc3)cc(C3CCC(O)CC3)n2n1 (mixture of isomers) [Compound 180] | 100 to 1000 | 100 to 1000
36 | C[C@@H](CC(F)(F)F)Nc1ncc2c(-c3cnn(C(C)(C)C(=O)C4COC4)c3)cc([C@H]3CC[C@@](C)(O)CC3)n2n1 [Compound 609] | ≤ 100 | ≤ 100
37 | C[C@@H](CC(F)(F)F)Nc1ncc2c(-c3cnn(C(C)(C)C(=O)C4COC4)c3)cc([C@H]3CC[C@](C)(O)CC3)n2n1 [Compound 610] | ≤ 100 | ≤ 100
